Tests used:
[1] = tested on: IFN-β promoter activity; assay: IFN-β promoter luciferase activity in Sendai virus stimulated Huh7 cells expressing HCV protease; details: 10 μM VX-950, Sendai virus infected Huh7 cells, WT HCV protease
[2] = tested on: ALT (alanine aminotransferase); assay: Multiple-dose 14-day study, serum ALT; details: 450 mg q8h, day 12; 5 out of 10 samples missing
[3] = in vivo
[4] = Predicted human liver exposures versus replicon assay IC50/IC90; details: dose range studied
Excerpt: Liver exposures to VX-950 were predicted based on the integrated preclinical and clinical data.

[5] = tested on: WT-HCV protease-SEAP; details: SCID mice expressing WT-HCV protease-SEAP; cited from earlier work
[6] = target: HCV NS3/4A protease (Hepatitis C virus genotype 1a, UniProt P27958); assay: In vitro cleavage of TRIF by HCV NS3/4A protease; assay type: biochemical; details: 10 μM VX-950, tNS3 protease 0-4 μM
Protocol: The 35S methionine labeled coupled in vitro transcription/translation product of TRIF protein (as a substrate) was incubated with increasing concentration of tNS3 protease enzyme ranging from 0-4 μM either in the presence (Circles) or absence (Squares) of 10 μM VX-950, followed by SDS-PAGE and exposure to phosphorimager.

[7] = tested on: neopterin; assay: Multiple-dose 14-day study, serum neopterin (competitive ELISA); details: 750 mg q8h, day 14; baseline 10.48±0.84 nmol/l; ULN 7.7 nmol/l
[8] = tested on: HCV genotype 1; assay: Multiple-dose 14-day study, plasma HCV RNA (Roche COBAS TaqMan HCV/HPS assay); assay type: in vivo, human
Excerpt: Detection of HCV RNA was done using the Roche COBAS TaqMan HCV/HPS assay, available from Roche molecular Diagnostics. Other assays are available.

[9] = tested on: AST (aspartate aminotransferase); assay: Multiple-dose 14-day study, AST; assay type: in vivo, human; details: upon administration of VX-950

HCV NS3/4A protease, sequence (P27958 1027-1208, other chains not shown): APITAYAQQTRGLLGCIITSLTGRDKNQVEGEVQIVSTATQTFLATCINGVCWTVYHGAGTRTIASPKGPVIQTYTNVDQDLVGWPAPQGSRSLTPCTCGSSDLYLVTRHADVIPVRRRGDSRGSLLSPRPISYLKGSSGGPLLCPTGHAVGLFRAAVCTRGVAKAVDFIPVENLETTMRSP

## CCC[C@H](NC(=O)[C@@H]1[C@H]2CCC[C@H]2CN1C(=O)[C@@H](NC(=O)[C@@H](NC(=O)c1cnccn1)C1CCCCC1)C(C)(C)C)C(=O)C(=O)NC1CC1 [VX-950]
[1]
  effect on IFNβ dependent gene expression: restores IFNβ dependent gene expression
[2]
  ALT level, median: 38 U/l
  ALT level, range: 25-125 U/l
[3]
  severe (grade 3 or grade 4) adverse events: No adverse events were considered to be severe
[4]
  predicted average liver concentration as multiple of the replicon assay IC50: up to 113 fold
  predicted average liver concentration as multiple of the replicon assay IC90: up to 57 fold
[5]
  effect on elevated ALT levels in animal model: ameliorates elevated ALT levels
[6]
  effect on in vitro cleavage of TRIF: inhibits in vitro cleavage of TRIF
[7]
  mean neopterin: 7.32 ± 0.48 nmol/L
[8]; category >−1 to <0, 450 mg q8 h (n = 10)
  Maximum change from baseline in HCV RNA (log10 IU/mL), subjects in category: 0 n
[8]; category >−1 to <0, 750 mg q8 h (n = 8)
  Maximum change from baseline in HCV RNA (log10 IU/mL), subjects in category: 0 n
[8]; category >−1 to <0, 1250 mg q12 h (n = 10)
  Maximum change from baseline in HCV RNA (log10 IU/mL), subjects in category: 0 n
[8]; category >−2 to ≦−1, 450 mg q8 h (n = 10)
  Maximum change from baseline in HCV RNA (log10 IU/mL), subjects in category: 0 n
[8]; category >−2 to ≦−1, 750 mg q8 h (n = 8)
  Maximum change from baseline in HCV RNA (log10 IU/mL), subjects in category: 0 n
[8]; category >−2 to ≦−1, 1250 mg q12 h (n = 10)
  Maximum change from baseline in HCV RNA (log10 IU/mL), subjects in category: 0 n
[8]; category >−3 to ≦−2, 450 mg q8 h (n = 10)
  Maximum change from baseline in HCV RNA (log10 IU/mL), subjects in category: 1 n
[8]; category >−3 to ≦−2, 750 mg q8 h (n = 8)
  Maximum change from baseline in HCV RNA (log10 IU/mL), subjects in category: 0 n
[8]; category >−3 to ≦−2, 1250 mg q12 h (n = 10)
  Maximum change from baseline in HCV RNA (log10 IU/mL), subjects in category: 1 n
[8]; category >−4 to ≦−3, 450 mg q8 h (n = 10)
  Maximum change from baseline in HCV RNA (log10 IU/mL), subjects in category: 7 n
[8]; category >−4 to ≦−3, 750 mg q8 h (n = 8)
  Maximum change from baseline in HCV RNA (log10 IU/mL), subjects in category: 3 n
[8]; category >−4 to ≦−3, 1250 mg q12 h (n = 10)
  Maximum change from baseline in HCV RNA (log10 IU/mL), subjects in category: 9 n
[8]; category >−5 to ≦−4, 450 mg q8 h (n = 10)
  Maximum change from baseline in HCV RNA (log10 IU/mL), subjects in category: 0 n
[8]; category >−5 to ≦−4, 750 mg q8 h (n = 8)
  Maximum change from baseline in HCV RNA (log10 IU/mL), subjects in category: 3 n
[8]; category >−5 to ≦−4, 1250 mg q12 h (n = 10)
  Maximum change from baseline in HCV RNA (log10 IU/mL), subjects in category: 0 n
[8]; category ≧−5, 450 mg q8 h (n = 10)
  Maximum change from baseline in HCV RNA (log10 IU/mL), subjects in category: 2 n
[8]; category ≧−5, 750 mg q8 h (n = 8)
  Maximum change from baseline in HCV RNA (log10 IU/mL), subjects in category: 2 n
[8]; category ≧−5, 1250 mg q12 h (n = 10)
  Maximum change from baseline in HCV RNA (log10 IU/mL), subjects in category: 0 n
[8]; during administration, all dose groups
  drop in viral load, every patient: > 2 log10
[8]; within the first three days, of the 28 subjects receiving VX-950
  subjects with a 3 log10 reduction in HCV-RNA: 26
[9]
  effect on AST levels: decreased
